Reference: publication PMC4389562, “Antigiardial activity of novel triazolyl-quinolone-based chalcone derivatives: when oxygen makes the difference” (Frontiers in Microbiology, 2015)
Read-outs that look alike come from different tables or passages of the source.

Legend:
Caco-2 cells = test: Counter-screen on Caco-2 cells, ATP level by luminescence (ATPlite), 48 h incubation; assay type: cell-based, human; details: atmospheric O2, 5% CO2, 48 h, 37 °C
Procedure: Trophozoites of G. intestinalis strain WB clone C6 (ATCC No. 50803TM) were cultured axenically at 37^∘C in 25-cm^2 flasks containing Diamond’s TYI-S-33 medium supplemented with 10% bovine calf serum, 1 mg/mL bovine bile, 0.1 g/L streptomycin and 100 U/mL penicillin. […] Human epithelial colorectal adenocarcinoma (Caco-2) cells were grown in 25-cm^2 flasks in EMEM supplemented with 1% (v/v) non-essential amino acids, 2 mM glutamine, 5% (v/v) fetal bovine serum, 0.1 g/L streptomycin, and 100 U/mL penicillin.
Cells were detached with 0.5% trypsin-EDTA and seeded in sterile 96-well white clear-bottom plates at the same density of Giardia trophozoites and at increasing concentration of the compound to be tested, as described above. The assays were carried out exactly as reported for the Giardia trophozoites, except that the plates were incubated (still at 37^∘C) at atmospheric O2 level, 5% CO2, and 95% humidity. Each drug concentration was tested in at least seven replicates. MTZ was used as an internal […] control in the assay. Following 48 h incubation with each compound, according to the manufacturer instructions, 100 μL of the ATPlite^TM luminescence assay system (Perkin Elmer) was added to each well for one-step lysis and ATP level detection by luminescence.
Luminometric data were calibrated using ATP standard curves and normalized to the ATP level measured in control DMSO-treated cells (taken as 100%). The measured ATP level percentage was plotted as a function of the compound concentration and the half-maximal inhibitory concentration (IC50) was obtained by fitting the resulting titration profile to the Hill equation ([Goutelle et al., 2008]). The selectivity index (SI) of the compounds was then calculated as the ratio between the IC50 value measured on human cells over the value determined on Giardia trophozoites (SI = IC50,Caco-2/IC50,Giardia).
Selectivity of the newly synthesized compounds toward Giardia was assessed by running a counter-screen on human epithelial Caco-2 cells. […] This allowed us to calculate the compounds SI, defined as the ratio between the IC50 value measured on human cells over the value determined on Giardia trophozoites.

[1] = tested on: Giardia intestinalis trophozoites; test: Drug susceptibility of Giardia trophozoites, ATP level by luminescence (BacTiter-Glo), 48 h incubation, anaerobic or microaerobic; assay type: cell-based, Giardia intestinalis strain WB clone C6; details: for IC50: 48 h, 37 °C, ATP level; for selectivity ratio at 48 h: human (Caco-2 cells) versus Giardia intestinalis, Caco-2, SI = IC50,Caco-2/IC50,Giardia
Procedure: Trophozoites of G. intestinalis strain WB clone C6 (ATCC No. 50803TM) were cultured axenically at 37^∘C in 25-cm^2 flasks containing Diamond's TYI-S-33 medium supplemented with 10% bovine calf serum, 1 mg/mL bovine bile, 0.1 g/L streptomycin and 100 U/mL penicillin. Typically, 50 ml medium was inoculated with 25 × 10^6 cells and after 2 days cells were harvested by chilling the flasks on ice for 30 min for drug susceptibility assays. […] The assays were performed following the procedure described in [Bahadur et al. (2014)], using sterile 96-well white clear-bottom plates. […] Each drug concentration was tested in at least six replicates. MTZ was used as an internal positive control in the assay. The microtiter plates were then incubated at 37^∘C under anaerobic or microaerobic conditions, ensured by the Anaerocult® A or the Anaerocult® […] (Merck), respectively. […] Following 48 h incubation with the compound to be tested, 100 μL of the BacTiter-Glo^TM Microbial Cell Viability Assay System reagent (Promega) was added to each well for one-step lysis and ATP level detection. Plates were then incubated at room temperature for 15 min and ATP levels finally detected by luminescence on a plate reader (Wallac Victor3 1420 Multilabel Counter, PerkinElmer). Luminometric data were calibrated using ATP standard curves and normalized to the ATP level measured in control DMSO-treated cells (taken as 100%). The measured ATP level percentage was plotted as a function of the compound concentration and the half-maximal inhibitory concentration (IC50) was obtained by fitting the resulting titration profile to the Hill equation ([Goutelle et al., 2008]). The selectivity index (SI) of the compounds was then calculated as the ratio between the IC50 value measured on human cells over the value determined on Giardia trophozoites (SI = IC50,Caco-2/IC50,Giardia). The antigiardial activity of the novel compounds 23-67 was tested under both anaerobic and microaerobic conditions. According to ([Dunn et al., 2010]; [Bahadur et al., 2014]), susceptibility of Giardia trophozoites to increasing concentrations of each compound was assessed based on ATP level determination by luminescence. Dose-response curves for each compound were obtained after 48 h-incubation and compared to the data collected under identical conditions with MTZ, the drug of choice for treatment of giardiasis. […] Typical dose-response curves are shown in Figure 2, whereas the IC50 values measured for the synthetic compounds and MTZ under anaerobic and microaerobic conditions are reported in Table 1. […] Under anaerobic conditions, 18 out of the 45 synthetic compounds were as effective as MTZ or more under identical conditions (see Table 1).

Giardia = tested on: Giardia; design: method as in Cedillo-Rivera and Munoz, 1992; details: anaerobic conditions; ref Cedillo-Rivera and Munoz, 1992; read-out: IC50 against Giardia under anaerobic conditions; cited from earlier work
[2] = Giardia duodenalis, anaerobic conditions (Anaerocult A), read-out: Giardia (anaerobiosis) IC50
[3] = Giardia duodenalis, microaerobic conditions (~5% O2, Anaerocult C), read-out: Giardia (microaerobiosis) IC50
[4] = Giardia under anaerobiosis, read-out: Selectivity (IC50,Caco/IC50,Giardia) Anaerobiosis
[5] = Giardia under microaerobiosis, read-out: Selectivity (IC50,Caco/IC50,Giardia) Microaerobiosis

| melting point [°C] | SMILES | IC50 (Caco-2 cells; Homo sapiens, Caco-2, 48 h) [nM] | IC50 (Caco-2 cells) [nM] | IC50 [1, 2] [nM] | IC50 [1, 3] [nM] | IC50 ([1]; anaerobic conditions (Anaerocult A), read-out: Giardia (anaerobiosis) IC50) [nM] | selectivity ratio at 48 h [1, 4] | selectivity ratio at 48 h [1, 5] | IC50 (Giardia) [nM] |
| --- | --- | --- | --- | --- | --- | --- | --- | --- | --- |
| 210 to 212 | COc1ccccc1C(=O)/C=C/c1cc2ccccc2n(Cc2cn(-c3ccccc3)nn2)c1=O [Compound 65] | ≥ 40000 | ≥ 50000 | 2200 to 3200 | 400 | 1600 |  |  |  |
| 224 to 226 | COc1cccc(C(=O)/C=C/c2cc3ccccc3n(Cc3cn(-c4ccccc4)nn3)c2=O)c1 [Compound 66] | ≥ 40000 | ≥ 50000 | 3200 | 1600 |  | > 15 | > 30 |  |
| 215 to 217 | COc1ccc(C(=O)/C=C/c2cc3ccccc3n(Cc3cn(-c4ccccc4)nn3)c2=O)cc1 [Compound 67] | ≥ 100000 |  | 5900 | 800 |  | ≥ 16 | ≥ 125 |  |
|  | CCCSc1ccc2nc(NC(=O)OC)[nH]c2c1 [albendazole] |  |  |  |  |  |  |  | < 100 |
